Measured values reported in patent EP0831093A1, “1-Carba-(dethia)-Cephalosporin Derivatives” (F. HOFFMANN-LA ROCHE AG, priority 1996, dated 1998).
Values after ≈ are worked out from the molar mass of the structure shown. Structures can show the parent of a compound that is named as a salt. Where two headings read alike, the source gives them in different places.

Tests used:
Experiment in all cases: MIC, agar dilution method in Mueller Hinton agar
Type in all cases: cell-based
S.pneumoniae. 907 = settings: Streptococcus pneumoniae
Method: (§1) In vitro activity was determined by minimum inhibitory concentration in a microorganism spectum by the agar dilution method in Mueller Hinton agar, inoculum = 10^4 CFU/spot.

E.coli TEM1 = settings: Escherichia coli
Method: as §1

E.cloacae 908R = settings: Enterobacter cloacae
Method: as §1

S.aureus 743 (MRSA) = settings: Staphylococcus aureus
Method: as §1

P.aeruginosa ATCC27853 = settings: Pseudomonas aeruginosa
Method: as §1

C.freundii 902 = settings: Citrobacter freundii
Method: as §1

C.freundii 43 = settings: Citrobacter freundii
Method: as §1

S.aureus 6538 = settings: Staphylococcus aureus
Method: as §1

E.faecalis 6 = settings: Enterococcus faecalis
Method: as §1

S.pyogenes b 15 = settings: Streptococcus pyogenes
Method: as §1

E.cloacae 908SSi = settings: Enterobacter cloacae
Method: as §1

P.vulgaris 1028 = settings: Proteus vulgaris
Method: as §1

S.marcescens 69438 = settings: Serratia marcescens
Method: as §1

K.pneumoniae 418 = settings: Klebsiella pneumoniae
Method: as §1

E.coli 25922 = settings: Escherichia coli
Method: as §1

P.mirabilis 2117 = settings: Proteus mirabilis
Method: as §1

[1] = S.pneumoniae. 907, inoculum = 10^4 CFU/spot, read-out: MIC
[2] = E.cloacae 908R, inoculum = 10^4 CFU/spot, read-out: MIC
[3] = S.aureus 743 (MRSA), inoculum = 10^4 CFU/spot, read-out: MIC
[4] = P.aeruginosa ATCC27853, inoculum = 10^4 CFU/spot, read-out: MIC
[5] = C.freundii 902, inoculum = 10^4 CFU/spot, read-out: MIC
[6] = C.freundii 43, inoculum = 10^4 CFU/spot, read-out: MIC
[7] = S.aureus 6538, inoculum = 10^4 CFU/spot, read-out: MIC
[8] = E.faecalis 6, inoculum = 10^4 CFU/spot, read-out: MIC
[9] = S.pyogenes b 15, inoculum = 10^4 CFU/spot, read-out: MIC
[10] = E.cloacae 908SSi, inoculum = 10^4 CFU/spot, read-out: MIC
[11] = P.vulgaris 1028, inoculum = 10^4 CFU/spot, read-out: MIC
[12] = S.marcescens 69438, inoculum = 10^4 CFU/spot, read-out: MIC
[13] = K.pneumoniae 418, inoculum = 10^4 CFU/spot, read-out: MIC
[14] = E.coli 25922, inoculum = 10^4 CFU/spot, read-out: MIC
[15] = P.mirabilis 2117, inoculum = 10^4 CFU/spot, read-out: MIC

SMILES	MIC (S.pneumoniae. 907; [1])	MIC (E.coli TEM1)	MIC (E.cloacae 908R; [2])	MIC (S.aureus 743 (MRSA); [3])	MIC (P.aeruginosa ATCC27853; [4])	MIC (C.freundii 902; [5])	MIC (C.freundii 43; [6])	MIC (S.aureus 6538; [7])	MIC (E.faecalis 6; [8])	MIC (S.pyogenes b 15; [9])	MIC (E.cloacae 908SSi; [10])	MIC (P.vulgaris 1028; [11])	MIC (S.marcescens 69438; [12])	MIC (K.pneumoniae 418; [13])	MIC (E.coli 25922; [14])	MIC (P.mirabilis 2117; [15])	other results
Nc1nc(/C(=N/O)C(=O)N[C@@H]2C(=O)N3C(C(=O)O)=C(/C=C4\CCN(c5ccc(O)cc5)C4=O)CC[C@H]23)cs1 [B, (6R,7S)-7-[(Z)-2-(Amino-thiazol-4-yl)-2-hydroxyimino-acetylamino]-3-[(E)-1-(4-hydroxy-phenyl)-2-oxo-pyrrolidin-3-ylidenemethyl]-8-oxo-1-aza-bicyclo[4.2.0]oct-2-ene-2-carboxylic acid sodium salt (1:1)]	≤ 0.06 µg/mL	0.12 µg/mL	> 32 µg/mL	32 µg/mL	32 µg/mL	0.5 µg/mL	32 µg/mL	1 µg/mL	4 µg/mL	≤ 0.06 µg/mL	0.5 µg/mL	> 32 µg/mL	4 µg/mL	0.12 µg/mL	0.25 µg/mL		
C[n+]1cccc(N2CC/C(=C\C3=C(C(=O)[O-])N4C(=O)[C@@H](NC(=O)/C(=N\O)c5nsc(N)n5)[C@H]4CC3)C2=O)c1 [D, (6R,7S)-7-[(Z)-2-(5-Amino-[1,2,4]thiadiazol-3-yl)-hydroxyimino-acetylamino]-3-[(E)-1-(1-methyl-pyridin-1-ium-3-yl)-2-oxo-pyrrolidin-3-ylidenemethyl]-8-oxo-1-aza-bicyclo[4.2.0]oct-2-ene-2-carboxylate]	≤ 0.06 µg/mL	0.25 µg/mL (≈ 0.464 µM)	1 µg/mL (≈ 1.86 µM)	8 µg/mL (≈ 14.9 µM)	8 µg/mL (≈ 14.9 µM)	≤ 0.06 µg/mL	0.5 µg/mL (≈ 0.928 µM)	0.5 µg/mL (≈ 0.928 µM)	0.25 µg/mL (≈ 0.464 µM)	≤ 0.06 µg/mL	0.12 µg/mL (≈ 0.223 µM)	> 32 µg/mL	0.12 µg/mL (≈ 0.223 µM)	≤ 0.06 µg/mL	0.06 µg/mL (≈ 0.111 µM)	0.12 µg/mL (≈ 0.223 µM)	
C[n+]1cccc(N2CC/C(=C\C3=C(C(=O)[O-])N4C(=O)[C@@H](NC(=O)/C(=N\OC5CCCC5)c5nsc(N)n5)[C@H]4CC3)C2=O)c1 [E, (6R,7S)-7-[(Z)-2-(5-Amino-[1,2,4]thiadiazol-3-yl)-cyclopentyloximino-acetylamino]-3-[(E)-1-(1-methyl-pyridin-1-ium-3-yl)-2-oxo-pyrroliden-3-ylidenemethyl]-8-oxo-1-aza-bicyclo[4.2.0]oct-2-ene-2-carboxylate]	≤ 0.06 µg/mL	1 µg/mL (≈ 1.65 µM)	0.5 µg/mL (≈ 0.824 µM)	4 µg/mL (≈ 6.59 µM)	8 µg/mL (≈ 13.2 µM)	≤ 0.06 µg/mL	0.5 µg/mL (≈ 0.824 µM)	0.5 µg/mL (≈ 0.824 µM)	1 µg/mL (≈ 1.65 µM)	≤ 0.06 µg/mL	≤ 0.06 µg/mL	32 µg/mL (≈ 52.7 µM)	1 µg/mL (≈ 1.65 µM)	0.25 µg/mL (≈ 0.412 µM)	≤ 0.06 µg/mL	2 µg/mL (≈ 3.3 µM)	
Nc1nc(/C(=N/O)C(=O)N[C@@H]2C(=O)N3C(C(=O)[O-])=C(/C=C4\CCN(CC(F)(F)F)C4=O)CC[C@H]23)cs1.[Na+] [A, (6R,7S)-7-[(Z)-2-(2-Amino-thiazol-4-yl)-2-hydroxyimino-acetylamino]-8-oxo-3-[(E)-2-oxo-1-(2,2,2-trifluoro-ethyl)-pyrrolidin-3-ylidenemethyl]-1-aza-bicyclo[4.2.0]oct-2-ene-2-carboxylic acid sodium salt (1:1)]		0.12 µg/mL															MIC (S.pneumoniae. 907): ≤ 0.06 µg/mL; MIC (E.cloacae 908R; 908R): > 32 µg/mL; MIC (S.aureus 743 (MRSA); MRSA): 32 µg/mL; MIC (P.aeruginosa ATCC27853; ATCC27853): 32 µg/mL; MIC (C.freundii 902; 902): 0.25 µg/mL; MIC (P.mirabilis 2117; 2117): ≤ 0.06 µg/mL; MIC (C.freundii 43; 43): 8 µg/mL; MIC (S.aureus 6538; 6538): 1 µg/mL; MIC (E.faecalis 6; 6): 8 µg/mL; MIC (S.pyogenes b 15; 15): ≤ 0.06 µg/mL; MIC (E.cloacae 908SSi; 908SSI): 2 µg/mL; MIC (P.vulgaris 1028; 1028): > 32 µg/mL; MIC (S.marcescens 69438; 69438): 2 µg/mL; MIC (K.pneumoniae 418; 418): 0.12 µg/mL; MIC (E.coli 25922; 25922): ≤ 0.06 µg/mL
C[n+]1cccc(N2CC/C(=C\C3=C(C(=O)[O-])N4C(=O)[C@@H](NC(=O)/C(=N\O)c5csc(N)n5)[C@H]4CC3)C2=O)c1 [C, (6R,7S)-7-[(Z)-2-(2-Amino-thiazol-4-yl)-2-hydroxyimino-acetylamino]-3-[(E)-1-(1-methyl-pyridin-1-ium-3-yl)-2-oxo-pyrrolidin-3-ylidenemethyl]-8-oxo-1-aza-bicyclo[4.2.0]oct-2-ene-2-carboxylate]	≤ 0.06 µg/mL	≤ 0.06 µg/mL	2 µg/mL (≈ 3.72 µM)	8 µg/mL (≈ 14.9 µM)	4 µg/mL (≈ 7.44 µM)	≤ 0.06 µg/mL	0.5 µg/mL (≈ 0.93 µM)	1 µg/mL (≈ 1.86 µM)	0.5 µg/mL (≈ 0.93 µM)	≤ 0.06 µg/mL	≤ 0.06 µg/mL	16 µg/mL (≈ 29.8 µM)	0.12 µg/mL (≈ 0.223 µM)	≤ 0.06 µg/mL	≤ 0.06 µg/mL	≤ 0.06 µg/mL	
C[n+]1ccc(N2CC/C(=C\C3=C(C(=O)[O-])N4C(=O)[C@@H](NC(=O)/C(=N\OC5CCCC5)c5csc(N)n5)[C@H]4CC3)C2=O)cc1 [G, (6R,7S)-7-[(Z)-2-(2-Amino-thiazol-4-yl)-2-cyclopentyloxyimino-acetylamino]-3-[(E)-1-(1-methyl-pyridin-1-ium-4-yl)-2-oxo-pyrrolidin-3-ylidenemethyl]-8-oxo-1-aza-bicyclo[4.2.0]oct-2-ene-2-carboxylate]	≤ 0.06 µg/mL	0.5 µg/mL (≈ 0.826 µM)	2 µg/mL (≈ 3.3 µM)	32 µg/mL (≈ 52.8 µM)	4 µg/mL (≈ 6.6 µM)	≤ 0.06 µg/mL	1 µg/mL (≈ 1.65 µM)	2 µg/mL (≈ 3.3 µM)	1 µg/mL (≈ 1.65 µM)	≤ 0.06 µg/mL	≤ 0.06 µg/mL	16 µg/mL (≈ 26.4 µM)	0.5 µg/mL (≈ 0.826 µM)	0.25 µg/mL (≈ 0.413 µM)	≤ 0.06 µg/mL	1 µg/mL (≈ 1.65 µM)	
C[n+]1cccc(N2CC/C(=C\C3=C(C(=O)[O-])N4C(=O)[C@@H](NC(=O)/C(=N\OCC(=O)O)c5csc(N)n5)[C@H]4CC3)C2=O)c1 [F, (6R,7S)-7-[(Z)-2-(2-Amino-thiazol-4-yl)-2-carboxymethoxyimino-acetylamino]-3-[(E)-1-(1-methyl-pyridin-1-ium-3-yl)-2-oxo-pyrrolidin-3-ylidenemethyl]-8-oxo-1-aza-bicyclo[4.2.0]oct-2-ene-2-carboxylate Na salt (1:1)]	≤ 0.06 µg/mL	≤ 0.06 µg/mL	4 µg/mL	> 32 µg/mL	1 µg/mL	≤ 0.06 µg/mL	2 µg/mL	32 µg/mL	> 32 µg/mL	0.12 µg/mL	≤ 0.06 µg/mL	0.12 µg/mL	≤ 0.06 µg/mL	≤ 0.06 µg/mL	≤ 0.06 µg/mL	≤ 0.06 µg/mL	
